For data set [1], the target named is HSA (Homo sapiens, UniProt P02768). Put plainly: BIACORE binding to HSA. Particulars: Protein: HSA; for Binding Sites: number of binding sites. An excerpt: (§1) In the following examples, Biacore and Animal Study data were obtained with regard to some of the compounds of the present invention, namely NCP 014, 023, 023a.
Data set [2] has as its target T1, HSA Fragment (Homo sapiens, UniProt P02768, form not given).
T1 construct: HSA Fragment
Put plainly: BIACORE binding to HSA Fragment. As to conditions: human, HSA fragment, Protein: HSA Fragment; read-out: KD2.
From the text: as §1
In general terms: In SPR one partner is held on a chip, and binding of the other changes the refractive index at the surface.

The target of data set [3] is T2, HSA Fragment (Homo sapiens, UniProt P02768).
T2 construct: HSA Fragment
Put plainly: BIACORE binding to HSA Fragment. Particulars: Protein: HSA Fragment; number of binding sites.
From the text: as §1

The target of data set [4] is Rat Albumin (Rattus norvegicus, UniProt P02770). Put plainly: BIACORE binding to Rat Albumin. Particulars: Protein: Rat Albumin; for Binding Sites: number of binding sites; for Kd: read-out: KD1.
From the text: as §1

Data set [5] has as its target human serum albumin (Homo sapiens, UniProt P02768). The data set can be described thus: Crystallographic determination of albumin binding site. As to conditions: serum albumin binding region observed.

“And” between values parts separate entries of the source, which are not always exact repeats. Identical values can stand only once. Like-named read-outs stand apart in the source and are kept apart here.

Chain of HSA (P02768 25-609): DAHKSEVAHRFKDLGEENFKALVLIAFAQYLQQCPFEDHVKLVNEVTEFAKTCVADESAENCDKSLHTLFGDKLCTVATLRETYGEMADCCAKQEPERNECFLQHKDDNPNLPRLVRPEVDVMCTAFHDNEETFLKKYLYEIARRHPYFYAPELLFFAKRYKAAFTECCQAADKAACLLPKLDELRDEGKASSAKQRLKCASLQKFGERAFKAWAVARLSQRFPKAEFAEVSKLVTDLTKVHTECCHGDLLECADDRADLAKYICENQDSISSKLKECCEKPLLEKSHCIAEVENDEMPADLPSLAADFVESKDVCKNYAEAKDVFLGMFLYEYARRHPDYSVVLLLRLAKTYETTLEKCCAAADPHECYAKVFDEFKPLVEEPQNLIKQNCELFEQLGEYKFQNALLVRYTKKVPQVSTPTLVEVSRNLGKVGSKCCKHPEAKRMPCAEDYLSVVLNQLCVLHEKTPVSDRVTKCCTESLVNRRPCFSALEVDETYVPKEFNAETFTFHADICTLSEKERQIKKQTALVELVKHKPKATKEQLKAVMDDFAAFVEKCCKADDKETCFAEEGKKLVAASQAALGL
Chain of human serum albumin (P02768 25-609): as above
Chain of Rat Albumin (P02770 25-608): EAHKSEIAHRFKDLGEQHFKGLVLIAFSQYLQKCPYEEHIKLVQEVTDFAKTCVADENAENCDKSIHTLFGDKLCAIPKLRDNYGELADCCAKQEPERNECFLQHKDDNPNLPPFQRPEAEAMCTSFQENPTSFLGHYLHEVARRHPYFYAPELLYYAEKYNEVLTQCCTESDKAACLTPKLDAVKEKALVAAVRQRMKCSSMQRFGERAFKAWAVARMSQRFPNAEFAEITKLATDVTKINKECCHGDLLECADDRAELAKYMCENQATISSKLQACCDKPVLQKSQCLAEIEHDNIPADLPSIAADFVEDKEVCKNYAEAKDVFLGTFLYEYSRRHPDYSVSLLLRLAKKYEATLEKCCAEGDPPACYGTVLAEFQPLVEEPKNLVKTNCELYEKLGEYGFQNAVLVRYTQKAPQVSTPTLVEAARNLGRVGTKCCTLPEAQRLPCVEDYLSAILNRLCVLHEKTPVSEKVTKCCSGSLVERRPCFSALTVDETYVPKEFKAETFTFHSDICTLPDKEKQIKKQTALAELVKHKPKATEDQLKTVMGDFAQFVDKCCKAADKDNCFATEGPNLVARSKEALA
T1 sequence (P02768 whole entry, the tested form may be a part): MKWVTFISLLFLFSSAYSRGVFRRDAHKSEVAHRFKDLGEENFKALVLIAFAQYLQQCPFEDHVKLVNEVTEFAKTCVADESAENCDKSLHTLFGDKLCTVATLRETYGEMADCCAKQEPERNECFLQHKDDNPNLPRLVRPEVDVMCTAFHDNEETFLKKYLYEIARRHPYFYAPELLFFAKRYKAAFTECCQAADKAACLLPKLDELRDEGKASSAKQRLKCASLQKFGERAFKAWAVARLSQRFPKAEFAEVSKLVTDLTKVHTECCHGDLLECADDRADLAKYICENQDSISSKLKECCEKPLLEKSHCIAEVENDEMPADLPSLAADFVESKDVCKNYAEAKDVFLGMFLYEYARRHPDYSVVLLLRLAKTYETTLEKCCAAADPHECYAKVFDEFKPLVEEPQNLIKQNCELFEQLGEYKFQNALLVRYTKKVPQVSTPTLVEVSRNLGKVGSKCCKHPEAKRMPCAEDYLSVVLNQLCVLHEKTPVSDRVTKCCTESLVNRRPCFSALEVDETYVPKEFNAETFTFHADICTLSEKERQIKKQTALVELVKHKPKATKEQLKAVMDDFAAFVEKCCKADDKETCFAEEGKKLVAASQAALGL
T2 sequence (P02768 whole entry, the tested form may be a part): as above

With `CCCCCCCCC(CC(C)=O)c1c(O)c2ccccc2oc1=O` (stereo not shown) [NCP 014], the “Binding Sites” value in data set [1] was 2 and 1; in data set [3], 2 and 1; in data set [4], 2. Further, the Kd in data set [1] (read-out: KD1) is 0.7 µM and 0.8 µM and 4.6 µM and 6.5 µM; in data set [1] (human, HSA (human serum albumin), read-out: KD2), 130 µM; in data set [2], 97 µM; in data set [4], 4.6 µM. The “albumin binding site (location)” value in data set [5] is “bind at the IB binding site, and in addition in the IIA binding site, but at a location different than the major site wherein sodium warfarin binds to albumin”.
Regarding `CC(=O)CC(Cc1ccccc1)c1c(O)c2ccccc2oc1=O` (stereo not shown) [NCP 023], in data set [1], the “Binding Sites” value is 2 and 1. Also, the Kd in data set [1] (read-out: KD2) was 112 µM and 160 µM; in data set [2] it was 220 µM; in data set [4], 85 µM. The “albumin binding site (location)” value in data set [5] was “bind at the IB site of serum albumin unique from the IB endogenous long-chain fatty acid site”.
As to `CC(=O)CC(Cc1ccc(Cl)cc1)c1c(O)c2ccccc2oc1=O` (stereo not shown) [NCP 023a], the “Binding Sites” value in data set [1] is 1 and 2; in data set [4] it was 2. For the same molecule, the values for the Kd in data set [1] (read-out: KD2), in data set [2] and in data set [4] were 40 µM, 50 µM and 11.8 µM, respectively. In addition, the “albumin binding site (location)” value in data set [5] is listed as “bind at the IB site of serum albumin unique from the IB endogenous long-chain fatty acid site”.

Values taken from patent US7439077B2, “Coumarin analog compounds for safer anticoagulant treatment” (New Century Pharmaceuticals, Inc., priority 2002, dated 2008).
